Assay in all cases: relative viability (nuclei count vs DMSO), 5 days (fraction); higher = more cells survive
Compound in assay [1]: C=CCNC1=C2C[C@@H](C)C[C@H](OC)[C@H](O)[C@@H](C)/C=C(\C)[C@H](OC(N)=O)[C@@H](OC)/C=C\C=C(/C)C(=O)NC(=CC1=O)C2=O [17-AAG] + C[C@@H](Oc1cc(-c2cnn(C3CCNCC3)c2)cnc1N)c1c(Cl)ccc(F)c1Cl [Crizotinib] (partner 1 µM)
The essentials: (§1)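 The day after seeding in 1536-well plates, lung cancer cell lines were treated by pin tool with a single drug, or with a fixed anchor-drug dose together with five library-drug doses (not always all listed) in √10 steps. After 5 days, a combined fix-and-stain solution (final 0.05% Triton X-100, 1% formaldehyde, 1 ug/ml Hoechst) was added. Nuclei counted on 4× images gave relative viability as treated counts over vehicle counts, reported as the median of duplicate plates.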

Compound in assay [2]: C=CCNC1=C2C[C@@H](C)C[C@H](OC)[C@H](O)[C@@H](C)/C=C(\C)[C@H](OC(N)=O)[C@@H](OC)/C=C\C=C(/C)C(=O)NC(=CC1=O)C2=O [17-AAG] + O=C(CCCCCCC(=O)Nc1ccccc1)NO [Vorinostat] (partner 1 µM)
The essentials:
as §1

Compound in assay [3]: C=CCNC1=C2C[C@@H](C)C[C@H](OC)[C@H](O)[C@@H](C)/C=C(\C)[C@H](OC(N)=O)[C@@H](OC)/C=C\C=C(/C)C(=O)NC(=CC1=O)C2=O [17-AAG] + CC(=O)c1c(C)c2cnc(Nc3ccc(N4CCNCC4)cn3)nc2n(C2CCCC2)c1=O [Palbociclib] (partner 0.5 µM)
The essentials: as §1

Compound in assay [4]: C=CCNC1=C2C[C@@H](C)C[C@H](OC)[C@H](O)[C@@H](C)/C=C(\C)[C@H](OC(N)=O)[C@@H](OC)/C=C\C=C(/C)C(=O)NC(=CC1=O)C2=O [17-AAG] + NC(=O)Nc1cc(-c2cccc(F)c2)sc1C(=O)N[C@H]1CCCNC1 [AZD7762] (partner 0.2 µM)
The method in brief: as §1

Regarding IA-LM, the relative viability in assay [1] (first compound 0.00128 µM) worked out at 0.807; in assay [1] (first compound 0.004048 µM), 0.663; in assay [1] (first compound 0.0128 µM) it was 0.758; in assay [1] (first compound 0.04048 µM) it was 0.291; in assay [1] (first compound 0.128 µM), 0.0644; in assay [2] (first compound 0.00128 µM) it was 0.911. Moreover, the relative viability in assay [2] (first compound 0.004048 µM) was 1.02; in assay [2] (first compound 0.0128 µM), 0.927; in assay [2] (first compound 0.04048 µM), 0.819; in assay [2] (first compound 0.128 µM) it was 0.823.

Consider NCI-H520, for which the relative viability came out at 0.232 in assay [3] (first compound 0.00128 µM); 0.228 in assay [3] (first compound 0.004048 µM); 0.175 in assay [3] (first compound 0.0128 µM); 0.153 in assay [3] (first compound 0.04048 µM); 0.133 in assay [3] (first compound 0.128 µM); 0.924 in assay [1] (first compound 0.00128 µM). The relative viability in assay [1] (first compound 0.004048 µM) was found to be 0.663; in assay [1] (first compound 0.0128 µM), 0.492; in assay [1] (first compound 0.04048 µM), 0.112; in assay [1] (first compound 0.128 µM), 0.0889; in assay [2] (first compound 0.00128 µM) it was 0.75; in assay [2] (first compound 0.004048 µM), 0.662. Moreover, the relative viability in assay [2] (first compound 0.0128 µM) was 0.433; in assay [2] (first compound 0.04048 µM), 0.174; in assay [2] (first compound 0.128 µM) it was 0.181.

For NCI-H522, the relative viability turned out to be 1.02 in assay [3] (first compound 0.00128 µM); 1.15 in assay [3] (first compound 0.004048 µM); 0.896 in assay [3] (first compound 0.0128 µM); 0.647 in assay [3] (first compound 0.04048 µM); 0.419 in assay [3] (first compound 0.128 µM); 0.845 in assay [4] (first compound 0.00128 µM). The relative viability in assay [4] (first compound 0.004048 µM) was 0.857; in assay [4] (first compound 0.0128 µM) it was 0.569; in assay [4] (first compound 0.04048 µM), 0.51; in assay [4] (first compound 0.128 µM), 0.393; in assay [2] (first compound 0.00128 µM), 0.982; in assay [2] (first compound 0.004048 µM), 0.944. For the same cell line, the relative viability in assay [2] (first compound 0.0128 µM) is 0.518; in assay [2] (first compound 0.04048 µM), 0.423; in assay [2] (first compound 0.128 µM), 0.382.

With NCI-H596, the relative viability in assay [1] (first compound 0.00128 µM) came to 0.95; in assay [1] (first compound 0.004048 µM) it was 0.834; in assay [1] (first compound 0.0128 µM), 1.03; in assay [1] (first compound 0.04048 µM) it was 0.986; in assay [1] (first compound 0.128 µM), 0.542; in assay [4] (first compound 0.00128 µM), 1.12. The relative viability is 1.05 in assay [4] (first compound 0.004048 µM); 1.18 in assay [4] (first compound 0.0128 µM); 1.04 in assay [4] (first compound 0.04048 µM); 0.397 in assay [4] (first compound 0.128 µM); 0.654 in assay [2] (first compound 0.00128 µM); 0.582 in assay [2] (first compound 0.004048 µM). Further, the relative viability was 0.692 in assay [2] (first compound 0.0128 µM), 0.576 in assay [2] (first compound 0.04048 µM) and 0.323 in assay [2] (first compound 0.128 µM).

For NCI-H661, the relative viability turned out to be 0.411 in assay [3] (first compound 0.00128 µM); 0.365 in assay [3] (first compound 0.004048 µM); 0.314 in assay [3] (first compound 0.0128 µM); 0.353 in assay [3] (first compound 0.04048 µM); 0.254 in assay [3] (first compound 0.128 µM); 1.13 in assay [1] (first compound 0.00128 µM). Further, the relative viability in assay [1] (first compound 0.004048 µM) was determined as 1.02; in assay [1] (first compound 0.0128 µM), 0.947; in assay [1] (first compound 0.04048 µM), 0.841; in assay [1] (first compound 0.128 µM) it was 0.532; in assay [2] (first compound 0.00128 µM), 0.785; in assay [2] (first compound 0.004048 µM), 0.791. In addition, the figures for the relative viability in assay [2] (first compound 0.0128 µM), in assay [2] (first compound 0.04048 µM) and in assay [2] (first compound 0.128 µM) were 0.707, 0.441 and 0.31, respectively.

Regarding NCI-H1299, the relative viability in assay [1] (first compound 0.00128 µM) turned out to be 0.975; in assay [1] (first compound 0.004048 µM), 0.932; in assay [1] (first compound 0.0128 µM), 0.897; in assay [1] (first compound 0.04048 µM), 0.814; in assay [1] (first compound 0.128 µM), 0.237.
